Measurements from patent US20260242738A1, “ALK5 INHIBITORS FOR EFFICIENT DERIVATION OF MESENCHYMAL STEM CELLS FROM EMBRYONIC STEM CELLS” (SCRIPPS HEALTH, priority 2022, published 2026).

Tests used:
[1] = tested on: pluripotent stem cells; conditions: LLY-507 and AZD5153 combined, monolayer on Matrigel-coated plates; cited from earlier work
[2] = tested on: hiPSC; conditions: CHIR99021 and TTNPB used together; cited from earlier work
[3] = tested on: ex vivo osteoarthritic cartilage explants; test: Ex vivo human osteoarthritic cartilage defect repair with fibrin-ECM constructs or pellets; assay type: cell-based; conditions: implanted as hydrogel or pellets, 3 weeks, serum-free chondrogenic medium with TGFβ3 10 ng/ml
Description: Monolayer cultured ES-MSC were suspended in a hydrogel wafer composed of collagen II (Innovative Research Inc. Novi, MI), hyaluronate (Supartz FX sodium hyaluronate, Seikagaku Corp. Tokyo, Japan), chondroitin sulfate (Sigma-Aldrich) and fibrin (Baxter Healthcare, Deerfield, IL) at a density of 20×10^6 cells per ml. The fibrinogen and thrombin components were prepared separately. To each fibrinogen component, 2 mg/ml sodium hyaluronate, 2 mg/ml chondroitin sulfate and 6 mg/ml collagen II was added (2× concentration of final). Cells were added to the thrombin component at a density of 40×10^6 cells per ml. Thrombin and fibrinogen components in individual syringes were attached to a Baxter DUO mixing syringe and extruded to form the coagulated constructs. The constructs were either directly implanted into ex vivo cartilage tissue or coagulated in 6 well tissue culture plates for 4 to 8 minutes before 4-6 ml of chondrogenic medium was added. To prevent shrinkage of the constructs during culture, the gels were held on AdminPatch microneedle arrays (AdminMed, Sunnyvale, CA) for the duration of their culture.
Osteochondral tissues were obtained from patients ranging between 60 to 70 years of age undergoing total knee arthroplasty within 4-6 hours of surgery (approved by Scripps Institutional Review Board) as previous described. Cartilage disks (6 mm in diameter and ~2-3 mm thick) were harvested from the osteochondral specimens using a sterile dermal punch. The cartilage tissue was cultured in medium consisting of DMEM (Mediatech Inc., Manassas, VA) supplemented with 10% calf serum (Omega Scientific Inc., Tarzana, CA) and 1% Penicillin-Streptomycin-Gentamycin (Life Technologies, Carlsbad, CA). Cartilage disks were maintained in 6-well plates (2-4 per well) in 8 ml medium for 72 hours before creation of the surgical defect. A flame-sterilized stainless-steel burr was used create defects approximately 2×2 mm wide and 0.5 to 1 mm deep. These defects were filled with pellets or hydrogel constructs trimmed to size using 2 mm dermal biopsy punches. […]

[4] = tested on: HADC 100 ES-MSC; test: Pellet culture chondrogenesis, histology and immunohistochemistry; assay type: cell-based, human; conditions: HADC 100 ES-MSC, 3 weeks, Safranin-O, collagen type I and II
Description: Monolayer-expanded ES-MSC (passage 2-5) were detached using Accutase® and 0.5×10^6 cells in 0.5 ml of chondrogenic medium were centrifuged at 900 rpm (~770 G) for 5 minutes to form high-density pellets. At least 5-6 pellets, for each ES-MSC condition, were cultured in serum-free chondrogenic medium consisting of Dulbecco's Modified Eagle Medium (Mediatech Inc., Manassas, VA), 1×ITS supplement (Sigma-Aldrich, St. Louis, MO), 100 nM Dexamethasone (Sigma), 1.25 mg/ml human serum albumin (Bayer, Leverkusen, Germany), 100 μM ascorbic acid 2-phosphate (Sigma), 1% penicillin/streptomycin/gentamycin (PSG, Gibco, Carlsbad, CA), and 10 ng/ml TGFβ3 (PeproTech, Rocky Hill, NJ). Pellets for ex vivo implantation were cultured for 3 days before implantation; pellets for histologic or gene expression analysis were maintained in culture for 3 weeks with media changes every 3 to 4 days.
Cell pellets and explants were fixed in Z-Fix (3.7% formaldehyde, Anatech Ltd., Battle Creek, MI), processed for embedding in paraffin, and cut into 4 μm-thick sections. Sections were stained with Safranin-O and Fast Green to visualize glycosaminoglycan distribution in the tissues. Alzarin Red S staining was used to detect the presence of mineralized matrix.
For assessment of collagen types I and II, sections were pretreated with pepsin (Digest-All 3, Thermo Fisher Scientific) for 9 minutes at 37° C. in a humid chamber before incubation at 4° C. for 12 to 16 hours with the following primary antibodies: rabbit anti-human collagen type I antibody (Ab 34710, Abcam, Cambridge, MA) 1 μg/ml; or mouse anti-human collagen type II (II-II6B3, Hybridoma Bank, University of Iowa) 2 μg/ml. For color development, the ImmPRESS secondary DAB (brown) or AP (red) kits (Vector Laboratories, Burlingame, CA) was used. Isotype controls were used to monitor non-specific staining.

[5] = tested on: ex vivo human meniscus tissue; test: ES-MSC on growth factor conjugated collagen scaffolds implanted into ex vivo human meniscus defects; assay type: cell-based; conditions: growth factor conjugated scaffold, 2 weeks in vitro, 5 weeks in ex vivo meniscus defect; ES-MSC from SB525334
Description: In a similar experiment, meniscus cartilage-like tissues produced by seeding ES-MSC derived from ALK-5 inhibitor SB525334 upon blow spun collagen scaffolds were implanted into ex vivo human meniscus defects. ES-MSC were seeded upon a glutaraldehyde crosslinked pneumatospun collagen type I scaffold (3.5×1 mm disks) that was conjugated with growth factors (TGFb1, TGFb3 or PDGFbb) or unconjugated (control). After 2 weeks in differentiation medium in vitro, the disks were implanted into 3.5 mm defects formed in ex vivo human meniscus tissue and cultured for 5 weeks.

COc1nnc2ccc(N3CCC(c4ccc(OCCN5CCN(C)C(=O)[C@H]5C)cc4)CC3)nn12 [AZD5153]
induction of MSC phenotype [1]: successfully induced MSC phenotype

Cc1c[nH]c(-c2cnc(NCCNc3ccc(C#N)cn3)nc2-c2ccc(Cl)cc2Cl)n1 [CHIR99021]
collagen type II immunocytochemical staining of chondroprogenitors [2]: abundant collagen type II immunocytochemical staining

O=C(NC1CCOCC1)c1ccc(-c2cc(-c3c[nH]nc3-c3ccccn3)ccn2)cc1 [GW788388]
cartilaginous neo-tissue formation in ex vivo osteoarthritic explants [3]: formed equally well | cartilage-like tissue formation in high density pellets [4]: also produced cartilage-like tissue

Cc1cn(CCN2CCN(c3ccccc3-c3cc(C#N)cc(C(=O)NCCCN4CCCC4)c3)CC2)c2ccccc12 [LLY-507]
induction of MSC phenotype [1]: successfully induced MSC phenotype

C/C(=C\c1ccc(C(=O)O)cc1)c1ccc2c(c1)C(C)(C)CCC2(C)C [TTNPB]
collagen type II immunocytochemical staining of chondroprogenitors [2]: abundant collagen type II immunocytochemical staining

TGFβ1: growth factor conjugated to pneumatospun collagen type I scaffold
collagen type of neo-meniscus like ECM [5]: higher in collagen type II

B1: TGFb3: growth factor conjugated to pneumatospun collagen type I scaffold (protein, UniProt P10600 301-412, looked up)
Transforming growth factor …: ALDTNYCFRNLEENCCVRPLYIDFRQDLGWKWVHEPKGYYANFCSGPCPYLRSADTTHSTVLGLYNTLNPEASASPCCVPQDLEPLTILYYVGRTPKVEQLSNMVVKSCKCS
modifications: conjugated to collagen type I scaffold
collagen type of neo-meniscus like ECM [5]: higher in collagen type II

B2: PDGFbb: growth factor conjugated to pneumatospun collagen type I scaffold (protein, UniProt P01127 82-190, looked up)
Platelet-derived growth …: SLGSLTIAEPAMIAECKTRTEVFEISRRLIDRTNANFLVWPPCVEVQRCSGCCNNRNVQCRPTQVQLRPVQVRKIEIVRKKPIFKKATVTLEDHLACKCETVAAARPVT
modifications: BB homodimer; conjugated to collagen scaffold
collagen type of neo-meniscus like ECM [5]: both collagen type I and II rich ECM
